Experimental data from publication PMC2709206 (The Journal of neuroscience : the official journal of the …, 2008).
Several values for one entry are separate records, joined by “and”; a condition that tells them apart may be missing. Equal entries are not always repeated. Where two headings read alike, the source gives them in different places. Blank lines part the entries; values can stand above or below the compound they belong to.

Legend:
mouse TRPA1 [1] = target: T1, mouse TRPA1 (Mus musculus, UniProt Q8BLA8); experiment: Voltage-clamp electrophysiology of TRPA1 CHO cells; assay type: cell-based; details: for membrane current in TRPA1 CHO cells: whole-cell, holding potential -60 mV
rat DRG neurons [2] = experiment: Calcium imaging of rat DRG neurons; assay type: cell-based; details: for capsaicin-sensitive DRG neurons that responded: 4-HNE 30 μM, 4-ONE 3 μM
[3] = test system: DRG neurons from trpa1+/+ mice; experiment: Calcium imaging of DRG neurons from trpa1+/+ mice; assay type: cell-based; details: trpa1+/+ mouse DRG neurons; percentage of response to 50 mM KCl
[4] = test system: DRG neurons from trpa1-/- mice; experiment: Calcium imaging of DRG neurons from trpa1-/- mice; assay type: cell-based; details: trpa1-/- mouse DRG neurons; percentage of response to 50 mM KCl
mouse TRPA1 [5] = target: T1, mouse TRPA1; experiment: [Ca2+]i increase in TRPA1-expressing CHO cells; assay type: cell-based; details: for [Ca2+]i-increase in TRPA1 CHO cells: at concentrations <50 μM, data not shown; for TRPA1 activation: Rose Bengal at 5 μM, supplemental Fig. 2
untransfected CHO cells = experiment: Responses; assay type: cell-based, Chinese hamster; details: data not shown
human TRPV1 = human TRPV1 (Homo sapiens, UniProt Q8NER1); experiment: Responses in CHO cells expressing TRPV1; assay type: cell-based; details: data not shown
wild-type mice = experiment: Nocifensive/pain behaviour after intraplantar injection, wild-type mice; assay type: in vivo, mouse; details: intraplantar 2.2 μmol H2O2 or 32 nmol 15d-PGJ2 in 25 μl, 3 min
trpa1-/- mice = experiment: Nocifensive/pain behaviour after intraplantar injection, trpa1-/- mice; assay type: in vivo, mouse; details: intraplantar 2.2 μmol H2O2 or 32 nmol 15d-PGJ2 in 25 μl, 3 min, compared with wild-type
rat nodose neurons = experiment: Calcium imaging of rat nodose ganglion neurons; assay type: cell-based; details: for percentage of rat nodose neurons responding with [Ca2+]i increase: positive = at least 15% of response to 50 mM KCl, H2O2 5 mM, AITC 50 μM
DRG neurons = experiment: Whole-cell voltage clamp of DRG neurons; assay type: cell-based, rat; details: voltage ramp
[6] = test system: DRG neurons from trpv1-/- mice; experiment: Calcium imaging of DRG neurons from trpv1-/- mice; assay type: cell-based, mouse; details: trpv1-/- mice (113 of 355)
[7] = test system: DRG neurons from wild-type mice; experiment: Calcium imaging of DRG neurons from wild-type mice; assay type: cell-based, mouse; details: wild-type mice (134 of 445)
rat DRG neurons [8] = details: ref Andersson et al., 2007; cited from earlier work

T1 sequence (Q8BLA8 whole entry): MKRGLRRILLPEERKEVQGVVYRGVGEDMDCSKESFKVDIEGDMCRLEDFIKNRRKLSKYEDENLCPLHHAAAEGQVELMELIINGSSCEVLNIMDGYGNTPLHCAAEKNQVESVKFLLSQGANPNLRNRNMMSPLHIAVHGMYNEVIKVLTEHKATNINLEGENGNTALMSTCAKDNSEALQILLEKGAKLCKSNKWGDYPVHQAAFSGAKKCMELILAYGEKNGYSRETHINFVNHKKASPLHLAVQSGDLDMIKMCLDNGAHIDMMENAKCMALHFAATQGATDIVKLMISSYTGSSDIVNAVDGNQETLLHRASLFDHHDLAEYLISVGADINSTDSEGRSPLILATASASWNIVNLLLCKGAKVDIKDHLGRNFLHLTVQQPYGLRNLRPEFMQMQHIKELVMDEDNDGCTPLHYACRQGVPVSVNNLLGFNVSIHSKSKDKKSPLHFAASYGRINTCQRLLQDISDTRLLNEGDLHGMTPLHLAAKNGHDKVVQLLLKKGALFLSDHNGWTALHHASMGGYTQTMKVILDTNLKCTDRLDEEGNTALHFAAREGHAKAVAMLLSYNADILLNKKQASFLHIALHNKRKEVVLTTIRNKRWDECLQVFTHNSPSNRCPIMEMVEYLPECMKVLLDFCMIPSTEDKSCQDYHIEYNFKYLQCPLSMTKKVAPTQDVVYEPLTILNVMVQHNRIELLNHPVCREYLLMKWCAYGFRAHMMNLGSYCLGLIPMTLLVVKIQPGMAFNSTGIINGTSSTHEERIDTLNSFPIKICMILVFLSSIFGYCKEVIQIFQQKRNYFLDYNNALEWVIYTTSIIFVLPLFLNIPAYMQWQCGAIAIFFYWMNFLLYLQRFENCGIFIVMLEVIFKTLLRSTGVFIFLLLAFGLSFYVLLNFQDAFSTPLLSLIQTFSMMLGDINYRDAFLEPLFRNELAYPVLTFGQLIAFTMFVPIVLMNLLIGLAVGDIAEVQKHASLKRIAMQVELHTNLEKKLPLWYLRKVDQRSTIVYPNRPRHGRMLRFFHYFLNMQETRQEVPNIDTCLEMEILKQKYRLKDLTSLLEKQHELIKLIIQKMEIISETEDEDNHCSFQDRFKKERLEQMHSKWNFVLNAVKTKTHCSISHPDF
Sequence of human TRPV1 (Q8NER1 whole entry): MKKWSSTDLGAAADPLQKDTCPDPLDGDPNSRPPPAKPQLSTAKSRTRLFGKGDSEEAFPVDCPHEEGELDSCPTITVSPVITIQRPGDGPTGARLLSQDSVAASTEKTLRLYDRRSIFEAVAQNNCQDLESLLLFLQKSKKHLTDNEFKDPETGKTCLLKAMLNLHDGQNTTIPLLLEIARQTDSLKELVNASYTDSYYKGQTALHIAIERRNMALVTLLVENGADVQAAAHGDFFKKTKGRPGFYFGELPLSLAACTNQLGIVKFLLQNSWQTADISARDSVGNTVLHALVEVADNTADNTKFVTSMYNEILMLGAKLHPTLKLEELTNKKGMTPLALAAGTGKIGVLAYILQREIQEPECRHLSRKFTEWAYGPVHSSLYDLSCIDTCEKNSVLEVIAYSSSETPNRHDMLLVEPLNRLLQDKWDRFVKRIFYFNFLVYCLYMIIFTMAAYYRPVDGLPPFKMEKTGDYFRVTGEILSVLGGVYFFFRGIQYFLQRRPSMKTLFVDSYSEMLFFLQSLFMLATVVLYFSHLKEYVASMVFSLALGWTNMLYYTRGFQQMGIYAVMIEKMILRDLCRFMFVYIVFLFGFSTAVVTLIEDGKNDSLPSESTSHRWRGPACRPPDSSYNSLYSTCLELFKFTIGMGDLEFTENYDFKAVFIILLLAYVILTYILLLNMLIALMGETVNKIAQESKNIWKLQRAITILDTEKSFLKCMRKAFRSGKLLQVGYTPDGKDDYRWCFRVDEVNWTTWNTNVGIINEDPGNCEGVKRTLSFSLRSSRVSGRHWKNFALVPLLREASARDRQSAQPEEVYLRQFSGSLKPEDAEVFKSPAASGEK

SMILES: CCCCCC(=O)C=CC=O [4-ONE, 4-oxo-2-nonenal]
EC50 (mouse TRPA1 [5]): 1.9 µM
capsaicin-sensitive DRG neurons that responded (rat DRG neurons [2]): Approximately 50%
Response amplitude (% of K+) [3]: 89%
Response amplitude (% of K+) [4]: 34%

SMILES: CCCCC/C=C\C=C1\C(=O)CC[C@@H]1C/C=C\CCCC(=O)O [9,10-dihydro-15d-PGJ2]
[Ca2+]i-increase in TRPA1 CHO cells (mouse TRPA1 [5]): failed to elicit any significant [Ca^2+]i-increase

SMILES: C=CCN=C=S [AITC, allyl isothiocyanate]
percentage of rat nodose neurons responding with [Ca2+]i increase (rat nodose neurons): 54.0%
Response amplitude (% of K+) [3]: 86%
Response amplitude (% of K+) [4]: 21%

SMILES: CCCCC[C@H](O)/C=C/[C@H]1C=CC(=O)[C@@H]1C/C=C\CCCC(=O)O [PGA2]
[Ca2+]i-increase in TRPA1 CHO cells (mouse TRPA1 [5]): failed to elicit any significant [Ca^2+]i-increase

SMILES: CC1CCC(C(C)C)C(O)C1 (stereo not shown) [menthol]
percentage of sensitive DRG neurons in DRG cultures (rat DRG neurons [8]): ~ 8%

Further lines, with some results ahead:

membrane current in TRPA1 CHO cells (mouse TRPA1 [1]): evoked membrane currents
SMILES: CCCCCC(O)/C=C/C=O (stereo not shown) [4-HNE, 4-hydroxynonenal]
capsaicin-sensitive DRG neurons that responded (rat DRG neurons [2]): Approximately 50%
Response amplitude (% of K+) [3]: 61%
Response amplitude (% of K+) [4]: 34%

membrane current in TRPA1 CHO cells (mouse TRPA1 [1]): evoked inward currents
[Ca2+]i increase / membrane currents in TRPV1 expressing CHO cells (human TRPV1): had no effect
SMILES: CCCCCC=CC=C1C(=O)C=C[C@@H]1CC=CCCCC(=O)O [15d-PGJ2, 15-deoxy-Δ^12,14-prostaglandin J2]
[Ca2+]i increase / membrane currents in untransfected CHO cells (untransfected CHO cells): had no effect
Response amplitude (% of K+) [3]: 63%
Response amplitude (% of K+) [4]: 47%
nocifensive/pain-related behaviour (wild-type mice): marked nocifensive behaviors
nocifensive/pain-related behaviour (trpa1-/- mice): greatly reduced or absent

reversal of [Ca2+]i response by dithiothreitol (DTT) (mouse TRPA1 [5]; DTT 1 mM): reversed
EC50 lower / potency increased in Fe2+-loaded vs untreated cells (mouse TRPA1 [5]; TRPA1 CHO cells, after 90 s): ~ 20 fold and 20 fold
concentrations that activate TRPA1 (mouse TRPA1 [5]; extracellularly applied): 50 to 100 µM
EC50 (mouse TRPA1 [5]; read-out: EC50, increase in [Ca2+]i in Fe2+-loaded cells, TRPA1 CHO cells preloaded with 100 μM FeSO4 for 1 h, after 90 s): 53 ± 6 µM
EC50 (mouse TRPA1 [5]; read-out: EC50, increase in [Ca2+]i, TRPA1 CHO cells, after 90 s exposure): 1200 ± 400 µM
EC50 (mouse TRPA1 [5]; read-out: EC50, increase in [Ca2+]i, TRPA1 CHO cells, after 600 s exposure (plateau)): 230 µM
reversal potential of evoked current (mouse TRPA1 [1]; TRPA1 CHO cells, voltage ramp, calcium-free solution): ~0 mV
single-channel chord conductance (mouse TRPA1 [1]; cell-attached patches, -100 to +100 mV): 94 ± 3 pS
membrane current in TRPA1 CHO cells (mouse TRPA1 [1]): evoked an inward current
SMILES: OO [H2O2, hydrogen peroxide]
currents in untransfected CHO cells (untransfected CHO cells; concentrations up to 100 mM): failed to evoke currents
capsaicin-sensitive DRG neurons that did not respond (rat DRG neurons [2]; rat DRG neurons, calcium imaging): ~ 50%
percentage of rat nodose neurons responding with [Ca2+]i increase (rat nodose neurons): 49.8%
capsaicin-sensitive nodose neurons that did not respond (rat nodose neurons; rat nodose neurons, calcium imaging): ~ 30%
reversal potential of evoked current (DRG neurons): -6 mV
Response amplitude (% of K+) [3]: 70%
Response amplitude (% of K+) [4]: 31%
proportion of sensitive DRG neurons [6]: 31.8%
proportion of sensitive DRG neurons [7]: 30.1%
nocifensive/pain-related behaviour (wild-type mice): marked nocifensive behaviors
nocifensive/pain-related behaviour (trpa1-/- mice): greatly reduced or absent

TRPA1 activation (mouse TRPA1 [5]): activated
SMILES: O=C([O-])c1c(Cl)c(Cl)c(Cl)c(Cl)c1-c1c2cc(I)c(=O)c(I)c-2oc2c(I)c([O-])c(I)cc12.[Na+].[Na+] [Rose Bengal]

TRPA1 activation (mouse TRPA1 [5]): activated
SMILES: Cc1ccc(S(=O)(=O)NCl)cc1 [chloramine T]
